The values below come from patent US20220298107A1, “SUBSTITUTED UREA DIHYDROOROTATE DEHYDROGENASE INHIBITORS” (Janssen Biotech, Inc., priority 2019, published 2022).

The target in one test is human DHODH (Homo sapiens, UniProt Q02127). Briefly: biochemical. On the procedure: To detect DHODH enzyme activities, dichloroindophenol (DCIP) is added as the final electron acceptor in the assay. DCIP can accept electrons from the reduced coenzyme Q generated in the assay, or from dihydroorotate (DHO) via flavin mononucleotide (FMN) by binding presumably to the ubiquinone pocket. […] The assay buffer contained […], pH 7.5, 150 mM NaCl, 0.5 mM EDTA, and 0.1% Triton X-100 in MilliQ water. Substrate consisting of 20 mM DHO, 5 mM CoQ6, and 1 mM DCIP in assay buffer, initiates the reaction. […] Absorbance measurements were obtained using the BMG Phera Star plate-reading spectrophotomer. Purified human DHODH was purchased from Proteros (cat. No. PR-0044). Chemicals were purchased from Sigma-Aldrich, Teknova, and Avanti Polar Lipids. Liquid handling was performed using Labcyte Echo and Formulatrix Tempest.

Another test deals with MOLM-13 cells. Put plainly: MOLM-13 Cellular Assay. The format is cell-based. Conditions: Homo sapiens, MOLM-13, 72 h, read-out: MOLM-13 Cellular Assay EC50 (nM). On the procedure:
MOLM-13 cells were obtained from DSMZ and were maintained in RPMI 1640+Glutamax+25 mM HEPES (Invitrogen, catalog number 72400) supplemented with 10% heat inactivated fetal bovine serum (FBS; Invitrogen, catalog number 16140). The day prior to assay set-up, cells were pelleted, resuspended in fresh media, counted, and cells were plated at 0.4×10^6 cell/mL in a T150 flask. On the day of the assay, cells were pelleted, resuspend in fresh media, counted and seeded at 5,000 cells/well in white opaque 96-well tissue culture treated microplates (Perkin Elmer, catalog number 6005680). Cells were exposed to different concentrations of test compounds at 37° C., 5% CO2 for 72 hours immediately after seeding. Cell viability was acquired on a Perkin Elmer Envision 2104 multilabel reader using the CellTiter-Glo assay (Promega) according to the manufacturer's instructions.

Chain of human DHODH (Q02127 whole entry): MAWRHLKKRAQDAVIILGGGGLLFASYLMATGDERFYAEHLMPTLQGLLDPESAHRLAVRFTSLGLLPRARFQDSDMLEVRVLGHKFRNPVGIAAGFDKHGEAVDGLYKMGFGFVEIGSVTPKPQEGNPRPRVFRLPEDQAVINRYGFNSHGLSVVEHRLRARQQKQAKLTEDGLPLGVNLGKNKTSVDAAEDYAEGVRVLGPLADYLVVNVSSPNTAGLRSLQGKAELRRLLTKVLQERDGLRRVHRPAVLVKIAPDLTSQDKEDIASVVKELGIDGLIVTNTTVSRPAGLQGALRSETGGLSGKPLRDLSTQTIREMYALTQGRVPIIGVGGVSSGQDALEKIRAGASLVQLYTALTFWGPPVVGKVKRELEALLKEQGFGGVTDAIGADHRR

On to `CCN(CC(F)F)C(=O)Nc1cc(O[C@@H](C)C(F)(F)F)c(C(=O)Nc2c(C)ccnc2Cl)cc1F` [Example 41, (S)-N-(2-Chloro-4-methylpyridin-3-yl)-4-(3-(2,2-difluoroethyl)-3-ethylureido)-5-fluoro-2-((1,1,1-trifluoropropan-2-yl)oxy)benzamide], for which the EC50 (commonly the concentration at which the effect is half-maximal) on human DHODH worked out at 17 nM; in the test with MOLM-13 cells it was 37 nM.
Taken in the same sequence, the figures for `Cc1ccnc(Cl)c1NC(=O)c1cc(F)c(NC(=O)N2CCC[C@@H]2CO)cc1O[C@@H](C)C(F)(F)F` [Example 36, (R)-N-(4-((2-Chloro-4-methylpyridin-3-yl)carbamoyl)-2-fluoro-5-(((S)-1,1,1-trifluoropropan-2-yl)oxy)phenyl)-2-(hydroxymethyl)pyrrolidine-1-carboxamide] were 2.6 nM and 6.6 nM.
For `C[C@H](Oc1cc(NC(=O)N2CCCCC2)c(F)cc1C(=O)Nc1c(F)cccc1Cl)C(F)(F)F` [Example 2, (S)-N-(4-((2-Chloro-6-fluorophenyl)carbamoyl)-2-fluoro-5-((1,1,1-trifluoropropan-2-yl)oxy)phenyl)piperidine-1-carboxamide], the concentration for a half-maximal effect (EC50) on human DHODH stood at 20 nM; with MOLM-13 cells, 12 nM.
`COc1ncc(C)c(NC(=O)c2cc(F)c(NC(=O)N3CCC[C@@H]3CO)cc2O[C@@H](C)C(F)(F)F)c1Cl` [Example 39, (R)-N-(4-((3-Chloro-2-methoxy-5-methylpyridin-4-yl)carbamoyl)-2-fluoro-5-(((S)-1,1,1-trifluoropropan-2-yl)oxy)phenyl)-2-(hydroxymethyl)pyrrolidine-1-carboxamide]: the EC50 at human DHODH was 2.6 nM; in the test with MOLM-13 cells, 3.5 nM.
`C[C@H](Oc1cc(NC(=O)N2CCC(O)C2)c(F)cc1C(=O)Nc1c(F)cccc1Cl)C(F)(F)F` (stereo partly drawn) [Example 30, N-(4-((2-Chloro-6-fluorophenyl)carbamoyl)-2-fluoro-5-(((S)-1,1,1-trifluoropropan-2-yl)oxy)phenyl)-3-hydroxypyrrolidine-1-carboxamide]: the EC50 stood at 120 nM at human DHODH and 57 nM in the test with MOLM-13 cells.
As for `CCN(C(=O)Nc1cc(O[C@@H](C)C(F)(F)F)c(C(=O)Nc2c(F)cccc2Cl)cc1F)C(C)C` [Example 4, (S)-N-(2-Chloro-6-fluorophenyl)-4-(3-ethyl-3-isopropylureido)-5-fluoro-2-((1,1,1-trifluoropropan-2-yl)oxy)benzamide], the EC50 at human DHODH came to 7.3 nM; in the test with MOLM-13 cells, 2.1 nM.
Taken in the same sequence, the figures for `COC1CCN(C(=O)Nc2cc(O[C@@H](C)C(F)(F)F)c(C(=O)Nc3c(F)cccc3Cl)cc2F)C1` (stereo partly drawn) [Example 29, N-(4-((2-Chloro-6-fluorophenyl)carbamoyl)-2-fluoro-5-(((S)-1,1,1-trifluoropropan-2-yl)oxy)phenyl)-3-methoxypyrrolidine-1-carboxamide] were 85 nM and 40 nM.
